Data on 17 compounds can be found in publication PMC10218303, “Novel Polymyxin-Inspired Peptidomimetics Targeting the SARS-CoV-2 Spike:hACE2 Interface” (International Journal of Molecular Sciences, 2023).

Read-outs that look alike come from different tables or passages of the source. Bridge positions count the residues as written; N and C are the ends. Square brackets hold non-standard residues; d marks the D form. Peptide text beside a SMILES is read from it. Dab = NCC[C@H](N)C(=O)O A value given as a limit tells only on which side of the number the result lay.

One may read the IC50 as the concentration that gives 50% inhibition. A lower IC50 goes with higher potency.

A short description of series [1]: in vitro. To be noted: human.
Series [2] has as its system SARS-CoV-2 (strain Delta). The settings on record: for IC50: strain Delta, 2 h.
The test system of series [3] is SARS-CoV-2 (strain 20A.EU2). To be noted: strain 20A.EU2, 2 h.
Series [4] can be described thus: in vitro. The settings on record: human. This is another data set of the same source.
For series [5] the following is noted: amide bond, 23-membered ring.
Where [6] appears, read: the molecule shown is the open-chain precursor.

With `CC[C@H](C)[C@@H]1NC(=O)[C@@H](NC(=O)[C@H](CCN)NC(=O)[C@@H](NC(=O)[C@H](CC(C)C)NC(C)=O)[C@@H](C)O)CCNC(=O)[C@H](Cn2cc(CC(=O)O)nn2)NC(=O)[C@H](CCN)NC(=O)[C@H](CCN)NC(=O)[C@H](Cc2ccc(O)cc2)NC(=O)[C@@H](Cc2ccccc2)NC1=O` [monomer 2], the CC50 in the series “in vitro [1]” and in “in vitro [4]” was above 50 µM throughout. In addition, the IC50 in series [2] and in series [3] was above 50 µM each time.
Turning to “Ac-Leu-Thr(tBu)-Dab(Boc)-Dab(H-Ala(N3))-Ile-dPhe-Tyr(tBu)-Dab(Boc)-Dab(Boc)-OH?”, the ring closure, isolated yield in series [5] (setting [6]) was 74%.
Compound `CC(C)C[C@@H]1NC(=O)[C@@H](Cc2ccccc2)NC(=O)[C@H](Cc2ccc(OC(C)(C)C)cc2)NC(=O)[C@@H](NC(=O)[C@H](CCNC(=O)OC(C)(C)C)NC(=O)OCC2c3ccccc3-c3ccccc32)CCNC(=O)[C@H]([C@@H](C)OC(C)(C)C)NC(=O)[C@H](CCNC(=O)OC(C)(C)C)NC(=O)[C@H](Cc2cn(C(=O)OC(C)(C)C)c3ccccc23)NC1=O` registered a ring closure, isolated yield in series [5] (from Fmoc-Dab(Boc)-Dab-Tyr(tBu)-dPhe-Leu-Trp(Boc)-Dab(Boc)-Thr(tBu)-OH?, HATU/HOAt/2,4,6-collidine, DCM/DMF, 0.71 mM) of 87%.
In series [5] (from Fmoc-Hse(Trt)-Dab-Tyr(tBu)-dPhe-Leu-Trp(Boc)-Dab(Boc)-Thr(tBu)-OH?, HATU/HOAt/2,4,6-collidine, DCM/DMF, 0.7 mM), `CC(C)C[C@@H]1NC(=O)[C@@H](Cc2ccccc2)NC(=O)[C@H](Cc2ccc(OC(C)(C)C)cc2)NC(=O)[C@@H](NC(=O)[C@H](CCOC(c2ccccc2)(c2ccccc2)c2ccccc2)NC(=O)OCC2c3ccccc3-c3ccccc32)CCNC(=O)[C@H]([C@@H](C)OC(C)(C)C)NC(=O)[C@H](CCNC(=O)OC(C)(C)C)NC(=O)[C@H](Cc2cn(C(=O)OC(C)(C)C)c3ccccc23)NC1=O` had a ring closure, isolated yield of 70%.
As to `CC(C)C[C@@H]1NC(=O)[C@@H](Cc2ccccc2)NC(=O)[C@H](Cc2ccc(OC(C)(C)C)cc2)NC(=O)[C@@H](NC(=O)[C@H](CCOC(c2ccccc2)(c2ccccc2)c2ccccc2)NC(=O)OCC2c3ccccc3-c3ccccc32)CCNC(=O)[C@H]([C@@H](C)OC(C)(C)C)NC(=O)[C@H](CCOC(c2ccccc2)(c2ccccc2)c2ccccc2)NC(=O)[C@H](Cc2cn(C(=O)OC(C)(C)C)c3ccccc23)NC1=O`, the ring closure, isolated yield in series [5] (from Fmoc-Hse(Trt)-Dab-Tyr(tBu)-dPhe-Leu-Trp(Boc)-Hse(Trt)-Thr(tBu)-OH?, HATU/HOAt/2,4,6-collidine, DCM/DMF, 0.7 mM) turned out to be 63%.
With `CC(C)C[C@@H]1NC(=O)[C@@H](Cc2ccccc2)NC(=O)[C@H](Cc2c[nH]c3ccccc23)NC(=O)[C@@H](NC(=O)[C@@H](N)CC(C)C)CCNC(=O)[C@H]([C@@H](C)O)NC(=O)[C@H](CCN)NC(=O)[C@H](CCN)NC1=O` [monomer 5] (H-L[Dab]W[dF]L[Dab][Dab]T; lactam 2-C), the CC50 in the series “in vitro [1]” and in “in vitro [4]” was above 50 µM throughout. Besides, the IC50 in series [2] and in series [3] was above 50 µM in each case.
For `CC(=O)N[C@@H](CCC(=O)O)C(=O)N[C@H](C(=O)N[C@@H](CCN)C(=O)N[C@H]1CCNC(=O)[C@H](Cn2cc(CC(=O)O)nn2)NC(=O)[C@H](CCN)NC(=O)[C@H](CCN)NC(=O)[C@H](Cc2ccc(O)cc2)NC(=O)[C@@H](Cc2ccccc2)NC(=O)[C@H](Cc2ccc(O)cc2)NC1=O)[C@@H](C)O` [monomer 6], the CC50 in the series “in vitro [1]” and in the series “in vitro [4]” was above 50 µM in each case. Moreover, the IC50 in series [2] and in series [3] was above 50 µM throughout.
Regarding `CC(C)C[C@@H]1NC(=O)[C@@H](Cc2ccccc2)NC(=O)[C@H](Cc2c[nH]c3ccccc23)NC(=O)[C@@H](NC(=O)[C@@H](N)CCN)CCNC(=O)[C@H]([C@@H](C)O)NC(=O)[C@H](CCN)NC(=O)[C@H](Cc2c[nH]c3ccccc23)NC1=O` [monomer 8] (H-[Dab][Dab]W[dF]LW[Dab]T; lactam 2-C), the CC50 in “in vitro [1]” and in the series “in vitro [4]” was above 50 µM each time. For the same compound, the “antiviral effect, in words” value in series [2] was “a hint of antiviral effect”. For the same compound, the IC50 in series [2] and in series [3] was above 50 µM each time.
With “Ac-Glu(tBu)-Thr(tBu)-Dab(Boc)-Dab(H-Ala(N3))-Tyr(tBu)-dPhe-Tyr(tBu)-Dab(Boc)-Dab(Boc)-OH?”, the ring closure, isolated yield in series [5] (setting [6]) was 48%.
For `CC(=O)N[C@@H](CCC(=O)O)C(=O)N[C@H](C(=O)N[C@@H](CCN)C(=O)N[C@H]1CCNC(=O)[C@H](Cn2cc(CC(=O)O)nn2)NC(=O)[C@H](CCN)NC(=O)[C@H](CCN)NC(=O)[C@H](CC(C)C)NC(=O)[C@@H](Cc2ccccc2)NC(=O)[C@H](Cc2ccc(O)cc2)NC1=O)[C@@H](C)O` [monomer 9], the CC50 in the series “in vitro [1]” and in the series “in vitro [4]” was above 50 µM in each case. The IC50 in series [2] and in series [3] was above 50 µM in each case.
With “Ac-Leu-Thr(tBu)-Dab(Boc)-Dab(H-Ala(N3))-Ile-dPhe-Tyr(tBu)-Hse(Trt)-Hse(Trt)-OH?”, in series [5] (setting [6]), the ring closure, isolated yield was 90%.
Turning to `CC(C)C[C@@H]1NC(=O)[C@@H](Cc2ccccc2)NC(=O)[C@H](Cc2ccc(O)cc2)NC(=O)[C@@H](NC(=O)[C@@H](N)CCN)CCNC(=O)[C@H]([C@@H](C)O)NC(=O)[C@H](CCN)NC(=O)[C@H](Cc2c[nH]c3ccccc23)NC1=O` [monomer 1] (H-[Dab][Dab]Y[dF]LW[Dab]T; lactam 2-C), the CC50 in “in vitro [1]” and in “in vitro [4]” was above 50 µM each time. For the same compound, the IC50 in series [2] and in series [3] was above 50 µM in each case.
Turning to `CC[C@H](C)[C@@H]1NC(=O)[C@@H](NC(=O)[C@H](CCN)NC(=O)[C@@H](NC(=O)[C@H](CC(C)C)NC(C)=O)[C@@H](C)O)CCNC(=O)[C@H](Cn2cc(CC(=O)N[C@@H](CCN)C(=O)N[C@H]3CCNC(=O)[C@H]([C@@H](C)O)NC(=O)[C@H](CCN)NC(=O)[C@H](Cc4c[nH]c5ccccc45)NC(=O)[C@H](CC(C)C)NC(=O)[C@@H](Cc4ccccc4)NC(=O)[C@H](Cc4ccc(O)cc4)NC3=O)nn2)NC(=O)[C@H](CCN)NC(=O)[C@H](CCN)NC(=O)[C@H](Cc2ccc(O)cc2)NC(=O)[C@@H](Cc2ccccc2)NC1=O` [dimer 3], the CC50 in the series “in vitro [1]” and in the series “in vitro [4]” was above 50 µM in each case. Besides, the IC50 in series [2] and in series [3] was above 50 µM each time.
In the case of `CC(C)C[C@H](NC(=O)OCC1c2ccccc2-c2ccccc21)C(=O)N[C@H]1CCNC(=O)[C@H]([C@@H](C)OC(C)(C)C)NC(=O)[C@H](CCNC(=O)OC(C)(C)C)NC(=O)[C@H](CCNC(=O)OC(C)(C)C)NC(=O)[C@H](CC(C)C)NC(=O)[C@@H](Cc2ccccc2)NC(=O)[C@H](Cc2cn(C(=O)OC(C)(C)C)c3ccccc23)NC1=O`, the ring closure, isolated yield in series [5] (from Fmoc-Leu-Dab-Trp(Boc)-dPhe-Leu-Dab(Boc)-Dab(Boc)-Thr(tBu)-OH?, HATU/HOAt/2,4,6-collidine, DCM/DMF, 0.7 mM) stood at 78%.
Compound `CC(C)C[C@@H]1NC(=O)[C@@H](Cc2ccccc2)NC(=O)[C@H](Cc2cn(C(=O)OC(C)(C)C)c3ccccc23)NC(=O)[C@@H](NC(=O)[C@H](CCNC(=O)OC(C)(C)C)NC(=O)OCC2c3ccccc3-c3ccccc32)CCNC(=O)[C@H]([C@@H](C)OC(C)(C)C)NC(=O)[C@H](CCNC(=O)OC(C)(C)C)NC(=O)[C@H](Cc2cn(C(=O)OC(C)(C)C)c3ccccc23)NC1=O` registered a ring closure, isolated yield in series [5] (from Fmoc-Dab(Boc)-Dab-Trp(Boc)-dPhe-Leu-Trp(Boc)-Dab(Boc)-Thr(tBu)-OH?, HATU/HOAt/2,4,6-collidine, DCM/DMF, 0.7 mM) of 70%.
On to “Ac-Glu(tBu)-Thr(tBu)-Dab(Boc)-Dab(H-Ala(N3))-Tyr(tBu)-dPhe-Leu-Dab(Boc)-Dab(Boc)-OH?”, for which, in series [5] (setting [6]), the ring closure, isolated yield is 65%.
`CC[C@H](C)[C@@H]1NC(=O)[C@@H](NC(=O)[C@H](CCNC(=O)OC(C)(C)C)NC(=O)[C@@H](NC(=O)[C@H](CC(C)C)NC(C)=O)[C@@H](C)OC(C)(C)C)CCNC(=O)[C@H](CN=[N+]=[N-])NC(=O)[C@H](CCNC(=O)OC(C)(C)C)NC(=O)[C@H](CCNC(=O)OC(C)(C)C)NC(=O)[C@H](Cc2ccc(OC(C)(C)C)cc2)NC(=O)[C@@H](Cc2ccccc2)NC1=O` came in with a ring closure, isolated yield in series [5] (from Ac-Leu-Thr(tBu)-Dab(Boc)-Dab(H-azidoAla)-Ile-dPhe-Tyr(tBu)-Dab(Boc)-Dab(Boc)-OH, HATU/HOAt/2,4,6-collidine, DCM/DMF 14:1, 0.7 mM) of 74%.
